For one test, the system named is CHO-K1. The experiment in a line: Cytotoxicity against CHOK1 cells. In kind it is functional. To be noted: Cricetulus griseus, read-out: ED50 (the source's name).
The species entered for the next test is Rana temporaria. The test can be described thus: Inhibition of cholinergic receptor in frog skeletal muscle at 0.1 uM to 1000 uM.

In brackets after ≈: the same amount, converted by molar mass. Activity calls are given as the source filed them. The calls are words filed in the database; no cut-off is given here.

Regarding `Nc1ncc(/C=C/CNC(=O)c2ccc[nH]2)[nH]1` [CLATHRODIN], in the test with CHO-K1, the EC50 came out at 1.33 µg/mL (≈ 5.75 µM). Also, the outcome in the test filed under Rana temporaria was Active.

(Values after ChEMBL document CHEMBL1158953, “The Structure of Clathrodin, a Novel Alkaloid Isolated from the Caribbean Sea Sponge Agelas clathrodes” (1991).)
